Measured values from ChEMBL document CHEMBL1221340, “Lanostane triterpenes from Ganoderma lucidum suppress the adipogenesis in 3T3-L1 cells through down-regulation of SREBP-1c” (Bioorg Med Chem Lett, 2010).
The source made the active and inactive calls. The rule behind the calls is not given here.

How the values were obtained:
3T3-L1 [1] = experiment: Inhibition of adipogenesis in mouse 3T3L1 cells assessed as reduction of triglyceride accumulation at 80 ug/ml after 8 days; format: functional
3T3-L1 [2] = experiment: Cytotoxicity against mouse 3T3L1 cells assessed as cell viability at up to 40 ug/ml; format: cell-based
3T3-L1 [3] = experiment: Inhibition of adipogenesis in mouse 3T3L1 cells assessed as reduction of GPDH activity at 80 ug/ml after 8 days; format: functional
3T3-L1 [4] = experiment: Cytotoxicity against mouse 3T3L1 cells assessed as cell viability at up to 80 ug/ml; format: cell-based
3T3-L1 [5] = experiment: Inhibition of adipogenesis in mouse 3T3L1 cells assessed as reduction of lipid accumulation at 40 ug/ml after 8 days relative to control; format: functional; details: 3T3-L1, 192 h
3T3-L1 [6] = experiment: Inhibition of adipogenesis in mouse 3T3L1 cells assessed as reduction of FAS mRNA expression at 80 ug/ml after 8 days by RT-PCR analysis; format: functional, cell-based
3T3-L1 [7] = experiment: Inhibition of adipogenesis in mouse 3T3L1 cells assessed as reduction of SREBP1c mRNA expression at 80 ug/ml after 8 days by RT-PCR analysis relative to control; format: functional; details: 3T3-L1, 192 h
3T3-L1 [8] = experiment: Inhibition of adipogenesis in mouse 3T3L1 cells assessed as reduction of SREBP1c protein expression at 80 ug/ml after 8 days by Western blotting analysis; format: functional, cell-based
3T3-L1 [9] = experiment: Inhibition of adipogenesis in mouse 3T3L1 cells assessed as reduction of ACC mRNA expression at 80 ug/ml after 8 days by RT-PCR analysis; format: functional, cell-based

C[C@H](CCC(=O)O)[C@H]1CC(=O)[C@@]2(C)C3=C(C(=O)C[C@]12C)[C@@]1(C)CC[C@H](O)C(C)(C)[C@@H]1C[C@@H]3O [LUCIDENIC ACID N]
inhibition (3T3-L1 [1]): Active
Activity (3T3-L1 [2]): Non-toxic
inhibition (3T3-L1 [3]): Active

C[C@H](CC(=O)C[C@@H](C)[C@H]1C[C@H](O)[C@@]2(C)C3=C(C(=O)C[C@]12C)[C@@]1(C)CCC(=O)C(C)(C)[C@@H]1C[C@@H]3O)C(=O)O [GANODERIC ACID A]
inhibition at 80 µg/mL (3T3-L1 [1]; 3T3-L1, 192 h): 36%
Activity (3T3-L1 [2]): Non-toxic
Activity (3T3-L1 [4]): Non-toxic
inhibition at 80 µg/mL (3T3-L1 [3]; 3T3-L1, 192 h): 48%

CC(CC(=O)C[C@@H](C)[C@H]1CC(=O)[C@@]2(C)C3=C(C(=O)C[C@]12C)[C@@]1(C)CC[C@H](O)C(C)(C)[C@@H]1C[C@@H]3O)C(=O)O (stereo partly specified) [GANODERIC ACID B]
inhibition (3T3-L1 [1]): Active
Activity (3T3-L1 [2]): Non-toxic
inhibition (3T3-L1 [3]): Active

COC(=O)[C@H](C)CC(=O)C[C@@H](C)[C@H]1C[C@H](O)[C@@]2(C)C3=C(C(=O)C[C@]12C)[C@@]1(C)CCC(=O)C(C)(C)[C@@H]1C[C@@H]3O
Activity (3T3-L1 [2]): Non-toxic
Activity (3T3-L1 [4]): Non-toxic

COC(=O)CC[C@@H](C)[C@H]1CC(=O)[C@@]2(C)C3=C(C(=O)[C@@H](OC(C)=O)[C@]12C)[C@@]1(C)CC[C@H](O)C(C)(C)[C@@H]1CC3=O [METHYL LUCIDENATE E2]
Activity (3T3-L1 [2]): Non-toxic

COC(=O)C(C)CC(=O)C[C@@H](C)[C@H]1CC(=O)[C@@]2(C)C3=C(C(=O)C[C@]12C)[C@@]1(C)CCC(=O)C(C)(C)[C@@H]1C[C@@H]3O (stereo partly specified) [METHYL GANODERATE D]
Activity (3T3-L1 [2]): Non-toxic

CCCCOC(=O)CC[C@@H](C)[C@H]1CC(=O)[C@@]2(C)C3=C(C(=O)C[C@]12C)[C@@]1(C)CCC(=O)C(C)(C)[C@@H]1C[C@@H]3O [BUTYL LUCIDENATE A]
inhibition at 40 µg/mL (3T3-L1 [5]): 45%
Activity (3T3-L1 [2]): Non-toxic

CCCCOC(=O)CC[C@@H](C)[C@H]1CC(=O)[C@@]2(C)C3=C(C(=O)C[C@]12C)[C@@]1(C)CC[C@H](O)C(C)(C)[C@@H]1C[C@@H]3O [BUTYL LUCIDENATE N]
inhibition (3T3-L1 [6]): Active
inhibition at 80 µg/mL (3T3-L1 [7]): 38%
inhibition (3T3-L1 [8]): Active
inhibition (3T3-L1 [1]): Active
inhibition at 40 µg/mL (3T3-L1 [5]): 56%
Activity (3T3-L1 [2]): Non-toxic
inhibition (3T3-L1 [3]): Active
inhibition (3T3-L1 [9]): Active

CCCCOC(=O)[C@H](C)CC(=O)C[C@@H](C)[C@H]1CC(=O)[C@@]2(C)C3=C(C(=O)C[C@]12C)[C@@]1(C)CC[C@H](O)C(C)(C)[C@@H]1C[C@@H]3O [BUTYL GANODERATE B]
inhibition (3T3-L1 [1]): Active
inhibition at 40 µg/mL (3T3-L1 [5]): 41%
Activity (3T3-L1 [2]): Non-toxic
inhibition (3T3-L1 [3]): Active

COC(=O)CC[C@@H](C)[C@H]1CC(=O)[C@@]2(C)C3=C(C(=O)C[C@]12C)[C@@]1(C)CCC(=O)C(C)(C)[C@@H]1C[C@@H]3O [METHYL LUCIDENATE A]
Activity (3T3-L1 [2]): Non-toxic

CCCCOC(=O)C(C)CC(=O)C[C@@H](C)[C@H]1C[C@H](O)[C@@]2(C)C3=C(C(=O)C[C@]12C)[C@@]1(C)CCC(=O)C(C)(C)[C@@H]1C[C@@H]3O (stereo partly specified) [BUTYL GANODERATE A]
inhibition (3T3-L1 [6]): Active
inhibition at 80 µg/mL (3T3-L1 [7]): 26%
inhibition (3T3-L1 [8]): Active
inhibition (3T3-L1 [1]): Active
inhibition at 40 µg/mL (3T3-L1 [5]): 48%
Activity (3T3-L1 [2]): Non-toxic
Activity (3T3-L1 [4]): Non-toxic
inhibition (3T3-L1 [3]): Active
inhibition (3T3-L1 [9]): Active

COC(=O)CC[C@@H](C)[C@H]1CC(=O)[C@@]2(C)C3=C(C(=O)[C@@H](OC(C)=O)[C@]12C)[C@@]1(C)CC[C@H](O)C(C)(C)[C@@H]1C[C@@H]3O [METHYL LUCIDENATE P]
Activity (3T3-L1 [2]): Non-toxic

COC(=O)C(C)CC(=O)C[C@@H](C)[C@H]1CC(=O)[C@@]2(C)C3=C(C(=O)[C@@H](OC(C)=O)[C@]12C)[C@@]1(C)CC[C@H](O)C(C)(C)[C@@H]1CC3=O (stereo partly specified) [METHYL GANODERATE H]
Activity (3T3-L1 [2]): Non-toxic

CC(CC(=O)C[C@@H](C)[C@H]1C[C@H](O)[C@@]2(C)C3=C(C(=O)C[C@]12C)[C@@]1(C)CCC(=O)C(C)(C)[C@@H]1CC3)C(=O)O (stereo partly specified) [GANOLUCIDIC ACID A]
Activity (3T3-L1 [2]): Non-toxic

COC(=O)C(C)CC(=O)C[C@@H](C)[C@H]1CC(=O)[C@@]2(C)C3=C(C(=O)C[C@]12C)[C@@]1(C)CC[C@H](O)C(C)(C)[C@@H]1C[C@@H]3O (stereo partly specified) [METHYL GANODERATE B]
inhibition (3T3-L1 [1]): Active
Activity (3T3-L1 [2]): Non-toxic
inhibition (3T3-L1 [3]): Active

C[C@H](CC(=O)C[C@@H](C)[C@H]1CC(=O)[C@@]2(C)C3=C(C(=O)C[C@]12C)[C@@]1(C)CCC(=O)C(C)(C)[C@@H]1CC3=O)C(=O)O [GANODERIC ACID E]
Activity (3T3-L1 [2]): Non-toxic

COC(=O)CC[C@@H](C)[C@H]1CC(=O)[C@@]2(C)C3=C(C(=O)C[C@]12C)[C@@]1(C)CCC(=O)C(C)(C)[C@@H]1CC3=O [METHYL LUCIDENATE F]
Activity (3T3-L1 [2]): Non-toxic
